Experimental data taken from patent publication US6849663B2, “2-Aminotetralines, a process for their preparation, and pharmaceutical compositions, for the prevention and therapeutic treatment of inflammatory and/or autoimmune pathologies” (Sigma-Tau Industrie Farmaceutiche Riunite S.p.A., priority 1997, dated 2005).
“And” between values parts separate entries of the source, which are not always exact repeats. Identical values can stand only once. Counter-ions that a name gives are not always drawn. Like-named read-outs stand apart in the source and are kept apart here.

Legend:
[1] = test system: E. coli LPS; design: species or system mice; settings: mouse, in vivo
[2] = test system: SEB (Staphylococcus aureus) enterotoxin; design: species or system mice; settings: mouse, in vivo
[3] = test system: TNF; assay: TNF production induced by LPS in rat blood culture; type: cell-based
[4] = test system: TNF; design: species or system mice; settings: mouse, in vivo
[5] = test system: TNF; design: species or system mice; settings: mouse, in vivo; remark: listed apart in the source
[6] = test system: IL-1β; design: species or system mice; settings: mouse, in vivo
[7] = test system: IL-6; design: species or system mice; settings: mouse, in vivo
[8] = test system: IFN-γ; design: species or system mice; settings: mouse, in vivo
[9] = test system: S. typhosa LPS; design: species or system mice; settings: mouse, in vivo; for Survival increase (%): iv
[10] = test system: TNF; assay: Serum TNF after Salmonella typhosa LPS in mice; type: in vivo; settings: 6 mg/kg i.v., −30/+5 min schedule, LPS control 154.2
Method: Animals were treated intraperitoneally (i.p.) with S. typhosa LPS. Prior to use, the endotoxin was first dissolved in sterile saline and then injected in a volume of 200 μL, at the dose of 27.0 mg/kg, corresponding to about the LD80.
The compounds tested were administered intravenously (i.v.) in a volume of 200 μL of sterile saline at the dose approximately corresponding to 1/10 LD50, 30 min before and again 5 min after the endotoxic challenge (LPS).
In both experimental models, blood samples were taken 90 min after the challenge (peak serum TNF level).
Ether-anaesthetised mice were bled by retro-orbital sinus puncture.
Blood samples were incubated at room temperature for 2 h and the serum thus obtained was centrifuged for 20 min at 3000 rpm and stored at −80° C. pending TNF assay.
TNF biological activity was determined in RPMI medium containing 1% FCS.
50 μL/well of serial dilutions of samples containing TNF were added directly to the Primaria microtiter plates.
The experimental conditions utilised were the same as those previously described.
Data were analysed statistically using the one-tailed Student's t test.

SMILES: Cl.N[C@@H]1CCc2cc(F)c(O)cc2C1 [ST 1238, R(+)-2-amino-6-fluoro-7-hydroxytetraline hydrochloride]
- Survival increase (%) [1]: +44%
- effect on lethality (in words) [1]: significantly reduces the lethality
- Survival increase (%) ([1]; iv): +60%
- Dead/Total ([1]; hydrochloride): 5/20 and 7/19
- Survival increase (%) [2]: +70%
- protective effect (in words) [2]: extremely significant protective effect
- Survival increase (%) ([2]; iv): +70%
- Dead/Total ([2]; hydrochloride): 1/20 and 4/20
- TNF (mean % values) [3]: 61%
- reduction of TNF production ([3]; rat blood cultures stimulated with LPS, compound 50 μM): 39%
- effect on TNF levels (in words) [4]: significantly reduces TNF levels
- TNF (U/mL) Mean [5]: 6.2 U/mL
- TNF (U/mL) mean [5]: 27.0 U/mL
- effect on TNF production (in words) [5]: significantly reduces TNF production
- IL-1β (pg/mL) Mean [6]: 0.9 pg/mL
- IL-6 (pg/mL) Mean [7]: 599 pg/mL
- effect on IL-6 production (in words) [7]: significantly reduces the production
- IFN-γ (pg/mL) Mean [8]: 25 pg/mL
- effect on IFN-γ production (in words) [8]: significantly reduces the production

SMILES: COc1cc2c(cc1F)CC[C@@H](N)C2 (racemic) [ST 626, (R,S)-2-amino-6-fluoro-7-methoxytetraline hydrochloride, reference compound]
- Dead/Total [9]: 6/20
- Survival increase (%) [9]: +40%
- Dead/Total [1]: 21/28
- Survival increase (%) ([1]; iv): +11%
- TNF (U/mL) Mean [10]: 35.0 U/mL

SMILES: CC(=O)c1cc2c(cc1C)CC[C@@H](N)C2.Cl (racemic) [ST 1274, (R,S)-7-acetyl-2-amino-6-methyltetraline hydrochloride]
- Dead/Total [9]: 10/20
- effect on lethality (in words) [9]: significantly reduce the lethality
- Survival increase (%) [9]: +40%
- Dead/Total [1]: 5/10
- Dead/Total [2]: 0/10
- Survival increase (%) ([2]; iv): +90%

SMILES: Cc1cc2c(cc1F)CC[C@@H](N)C2.Cl (racemic) [ST 1275, (R,S)-2-amino-6-fluoro-7-methyltetraline hydrochloride]
- Dead/Total [9]: 6/10
- effect on lethality (in words) [9]: significantly reduce the lethality
- Survival increase (%) [9]: +40%
- Dead/Total [1]: 5/10
- Dead/Total [2]: 1/10
- Survival increase (%) ([2]; iv): +80%
